Reference: patent publication US5242938A, “Derivatives of virginiamycin M1” (Merck & Co., Inc., priority 1992, dated 1993)
Converted amounts (≈) assume the structure as drawn. Like-named read-outs stand apart in the source and are kept apart here.

Tests used:
[1] = target: T1, CCK-B (guinea pig cortex) (Cavia porcellus, UniProt H0VZC5); experiment: [3H]L-365,260 CCK-B selective antagonist ligand binding, brain membranes; conditions: for IC50: read-out: CCK binding inhibition - IC50, [3H]L-365,260
T1 construct: guinea pig cortical preparations; from tissue; host or cells: guinea pig brain cortex membranes
T1 sequence (H0VZC5 1-426): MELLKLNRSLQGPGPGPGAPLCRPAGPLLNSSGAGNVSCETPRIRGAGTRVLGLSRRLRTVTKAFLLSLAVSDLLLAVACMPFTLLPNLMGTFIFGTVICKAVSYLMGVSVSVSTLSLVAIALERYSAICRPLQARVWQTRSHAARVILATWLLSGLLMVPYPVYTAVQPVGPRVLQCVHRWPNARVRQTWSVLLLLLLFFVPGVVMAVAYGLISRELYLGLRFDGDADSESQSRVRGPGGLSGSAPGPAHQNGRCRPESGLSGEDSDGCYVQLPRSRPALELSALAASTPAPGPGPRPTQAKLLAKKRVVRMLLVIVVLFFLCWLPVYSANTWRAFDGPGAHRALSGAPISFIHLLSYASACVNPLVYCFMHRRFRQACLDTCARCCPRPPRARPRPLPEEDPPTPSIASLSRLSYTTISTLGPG
Experimental: (§1) The resulting supernatant was re-spun at 20,000×g for 20 minutes. […] Incubations were for 40 minutes at 4° C. and were terminated by filtration and washing with ice cold 100 mM saline. […] Incubations were for 30 minutes at room temperature and were terminated by filtration over GF/C filters and washing with 100 mM NaCl.

[2] = target: T1, CCK-B (guinea pig cortex); experiment: [125I]BHCCK-8 radioligand binding, guinea pig cortical preparation; conditions: read-out: CCK binding inhibition - IC50, [125I]BHCCK
Experimental: as §1

CCK-A (rat pancreas) [3] = target: T2, CCK-A (rat pancreas) (Rattus norvegicus, UniProt P30551); experiment: [125I]BHCCK-8 radioligand binding, rat pancreatic preparation; conditions: read-out: CCK binding inhibition - IC50, [125I]BHCCK
T2 construct: from tissue; host or cells: rat pancreas
T2 sequence (P30551 1-444): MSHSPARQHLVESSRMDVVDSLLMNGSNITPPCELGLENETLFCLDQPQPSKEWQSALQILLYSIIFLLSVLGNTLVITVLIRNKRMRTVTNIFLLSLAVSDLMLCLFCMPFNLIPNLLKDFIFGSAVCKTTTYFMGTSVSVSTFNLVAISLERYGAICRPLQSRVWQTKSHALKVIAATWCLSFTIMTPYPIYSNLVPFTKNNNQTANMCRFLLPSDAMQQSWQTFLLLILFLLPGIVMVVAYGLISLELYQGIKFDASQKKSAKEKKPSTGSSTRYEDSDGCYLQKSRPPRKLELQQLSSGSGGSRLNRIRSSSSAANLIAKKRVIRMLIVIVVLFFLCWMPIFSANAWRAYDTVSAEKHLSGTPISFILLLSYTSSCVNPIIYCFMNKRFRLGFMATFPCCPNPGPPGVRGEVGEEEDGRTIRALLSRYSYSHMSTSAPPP
Experimental: as §1

[4] = tested on: Salmonella gallinarum (Mb 1287); experiment: Agar diffusion disc assay, Salm 1287; assay type: cell-based; conditions: Salmonella enterica, GALLINARUM, 18 h, read-out: Inhibition zone diameter, Salm 1287
In short: (§2)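 Serial dilutions from a 1 mg/ml methanol solution, 20 μl applied to 6 mm paper discs, dried, and placed on agar seeded with ~10^6 cfu. Overnight (~18 hours) incubation at 25° C; inhibition zone sizes measured to nearest mm, triplicate means; agar diffusion MIC determined per Barry.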

[5] = tested on: Escherichia coli (Mb 1418); experiment: Agar diffusion disc assay, Coli 1418; assay type: cell-based; conditions: for zone of inhibition at 20 µg/disc: Escherichia coli, 18 h
In short: as §2

[6] = tested on: Corynebacterium pseudodiphtheriticum (Mb 261, ATCC 9742); experiment: Agar diffusion disc assay, Cory 261; assay type: cell-based; conditions: Corynebacterium pseudodiphtheriticum, ATCC9742, 18 h
In short: as §2

[7] = tested on: Streptococcus faecium (Mb 2820); experiment: Agar diffusion disc assay, Str 2820; assay type: cell-based; conditions: Enterococcus faecium, 18 h
In short: as §2

[8] = tested on: Staphylococcus aureus (Mb 2983); experiment: Agar diffusion disc assay, Sta 2983; assay type: cell-based; conditions: Staphylococcus aureus, 18 h
In short: as §2

Bacillus sp. (Mb 633) = experiment: Agar diffusion disc assay, Baci 633; assay type: cell-based; conditions: @ 20 g/disc; for zone of inhibition at 20 µg/disc: Bacillus, 18 h, read-out: Inhibition zone diameter, Baci 633
In short: as §2

[9] = tested on: Streptococcus agalactiae (Mb 2875); experiment: Agar diffusion disc assay, Str 2875; assay type: cell-based; conditions: Streptococcus agalactiae, 18 h
In short: as §2

CCK-A (rat pancreas) [10] = target: T2, CCK-A (rat pancreas); experiment: [3H]L-364,718 CCK-A selective antagonist ligand binding, pancreas; conditions: read-out: CCK binding inhibition - IC50, [3H]L-364,718
Experimental: as §1

[11] = tested on: Micrococcus luteus (Mb 1101, ATCC 9341); experiment: Agar diffusion disc assay, Micr 1101; assay type: cell-based
In short: as §2

[12] = tested on: Staphylococcus aureus (Mb 108, ATCC 6538P); experiment: Agar diffusion disc assay, Sta 108; assay type: cell-based; conditions: Staphylococcus aureus, ATCC6538P, 18 h
In short: as §2

[13] = tested on: Bacillus subtilis (Mb 964, ATCC 6633); experiment: Agar diffusion disc assay, Subt 964; assay type: cell-based; conditions: Bacillus subtilis, ATCC6633, 18 h, read-out: Inhibition zone diameter, Subt 964
In short: as §2

[14] = tested on: En terobacter aergenes (Mb 835); experiment: Agar diffusion disc assay, Ent 835; assay type: cell-based; conditions: 18 h, read-out: Inhibition zone diameter, Ent 835
In short: as §2

[15] = tested on: Pseudomonas stutzeri (Mb 1231, ATCC 11607); experiment: Agar diffusion disc assay, Pseu 1231; assay type: cell-based; conditions: for zone of inhibition at 20 µg/disc: Stutzerimonas stutzeri, ATCC11607, 18 h
In short: as §2

[16] = read-out: Inhibition zone diameter, Cory 261, @ 20 g/disc
[17] = read-out: Inhibition zone diameter, Str 2820, @ 20 g/disc
[18] = read-out: Inhibition zone diameter, Sta 2983, @ 20 g/disc
[19] = read-out: Inhibition zone diameter, Str 2875, @ 20 g/disc
[20] = Micrococcus luteus, ATCC9341, 18 h, read-out: Inhibition zone diameter, Micr 1101, @ 20 g/disc
[21] = Micrococcus luteus, ATCC9341, 18 h, read-out: Mean of triplicate zone size versus Micrococcus luteus, 5.00 μg/disc; 25° C., ~18 hours
[22] = Micrococcus luteus, ATCC9341, 18 h, read-out: Mean of triplicate zone size versus Micrococcus luteus, 20.0 μg/disc; 25° C., ~18 hours
[23] = read-out: Inhibition zone diameter, Sta 108, @ 20 g/disc

| SMILES | A.R. = agonist ratio = IC50([3H]L365,260)/IC50([125I]CCK) [1] | IC50 [1] [µM] | IC50 [2] [µM] | IC50 (CCK-A (rat pancreas) [3]) [µM] | zone of inhibition at 20 µg/disc [4] [mm] | zone of inhibition at 20 µg/disc [6, 16] [mm] | zone of inhibition at 20 µg/disc [7, 17] [mm] | zone of inhibition at 20 µg/disc [8, 18] [mm] | zone of inhibition at 20 µg/disc [9, 19] [mm] | IC50 (CCK-A (rat pancreas) [10]) [µM] | zone of inhibition at 20 µg/disc [11, 20] [mm] | zone of inhibition at 5 µg/disc [11, 21] [mm] | zone of inhibition at 20 µg/disc [11, 22] [mm] | zone of inhibition at 20 µg/disc [12, 23] [mm] | zone of inhibition at 20 µg/disc [13] [mm] | zone of inhibition at 20 µg/disc [14] [mm] | zone of inhibition at 20 µg/disc (Bacillus sp. (Mb 633)) [mm] | also measured |
| --- | --- | --- | --- | --- | --- | --- | --- | --- | --- | --- | --- | --- | --- | --- | --- | --- | --- | --- |
| CC1=C\[C@@H](O)CC(O)Cc2nc(co2)C(=O)N2CCC=C2C(=O)O[C@H](C(C)C)[C@H](C)/C=C/C(=O)NC\C=C\1 (single isomer, unassigned) [Example 14A] | 0.1 | 0.14 | 2.1 | > 3 | 0 | 30 | 16 | 22 | 30 | > 3 | 35 | 29 | 33 | 27 | 0 | 0 |  | Inhibition zone diameter, Coli 1418 ([5]; @ 20 g/disc): 8 mm; Inhibition zone diameter, Baci 633 (Bacillus sp. (Mb 633)): 9 mm; zone of inhibition at 1.25 µg/disc ([11]; Micrococcus luteus, ATCC9341, 18 h, read-out: Mean of triplicate zone size versus Micrococcus luteus, 1.25 μg/disc; 25° C., ~18 hours): 25 mm; zone of inhibition at 2.5 µg/disc ([11]; Micrococcus luteus, ATCC9341, 18 h, read-out: Mean of triplicate zone size versus Micrococcus luteus, 2.50 μg/disc; 25° C., ~18 hours): 27 mm; MIC ([11]; read-out: Agar Diffusion MIC versus Micrococcus luteus): 0.08 µM (≈ 0.0422 µg/mL); Inhibition zone diameter, Pseu 1231 ([15]; @ 20 g/disc): 15 mm |
| CC1=C\[C@@H](OC(=O)c2ccccc2)CC(=O)Cc2nc(co2)C(=O)N2CCC=C2C(=O)O[C@H](C(C)C)[C@H](C)/C=C/C(=O)NC\C=C\1 [Example 6] | 2 | 0.19 | 0.096 | 2.3 |  |  |  |  |  | > 3 |  |  |  |  |  |  | 0 | zone of inhibition at 20 µg/disc ([4]; @ 20 g/disc): 0 mm; zone of inhibition at 20 µg/disc ([5]; @ 20 g/disc, read-out: Inhibition zone diameter, Coli 1418): 0 mm; zone of inhibition at 20 µg/disc ([6]; @ 20 g/disc, read-out: Inhibition zone diameter, Cory 261): 0 mm; zone of inhibition at 20 µg/disc ([7]; @ 20 g/disc, read-out: Inhibition zone diameter, Str 2820): 0 mm; zone of inhibition at 20 µg/disc ([8]; @ 20 g/disc, read-out: Inhibition zone diameter, Sta 2983): 0 mm; zone of inhibition at 20 µg/disc ([9]; @ 20 g/disc, read-out: Inhibition zone diameter, Str 2875): 0 mm; zone of inhibition at 20 µg/disc ([11]; Micrococcus luteus, ATCC9341, 18 h; @ 20 g/disc; read-out: Inhibition zone diameter, Micr 1101): 8 mm; MIC ([11]; Micrococcus luteus, ATCC9341, 18 h; read-out: Agar Diffusion MIC versus Micrococcus luteus): 0.003 µM (≈ 0.00189 µg/mL); zone of inhibition at 10 µg/disc ([11]; Micrococcus luteus, ATCC9341; 10.0 μg/disc; 25° C., ~18 hours; read-out: Mean of triplicate zone size versus Micrococcus luteus): 10 mm; zone of inhibition at 20 µg/disc ([11]; Micrococcus luteus, ATCC9341; 20.0 μg/disc; 25° C., ~18 hours; read-out: Mean of triplicate zone size versus Micrococcus luteus): 9 mm; zone of inhibition at 40 µg/disc ([11]; Micrococcus luteus, ATCC9341; 40.0 μg/disc; 25° C., ~18 hours; read-out: Mean of triplicate zone size versus Micrococcus luteus): 10 mm; zone of inhibition at 80 µg/disc ([11]; Micrococcus luteus, ATCC9341; 80.0 μg/disc; 25° C., ~18 hours; read-out: Mean of triplicate zone size versus Micrococcus luteus): 10 mm; zone of inhibition at 160 µg/disc ([11]; Micrococcus luteus, ATCC9341; 160 μg/disc; 25° C., ~18 hours; read-out: Mean of triplicate zone size versus Micrococcus luteus): 11 mm; zone of inhibition at 20 µg/disc ([12]; @ 20 g/disc, read-out: Inhibition zone diameter, Sta 108): 0 mm; zone of inhibition at 20 µg/disc ([13]; @ 20 g/disc): 0 mm; zone of inhibition at 20 µg/disc ([14]; @ 20 g/disc): 0 mm; zone of inhibition at 20 µg/disc ([15]; @ 20 g/disc, read-out: Inhibition zone diameter, Pseu 1231): 0 mm |
| CC1=C\[C@@H](OC(=O)Cc2ccccc2)CC(=O)Cc2nc(co2)C(=O)N2CCC=C2C(=O)O[C@H](C(C)C)[C@H](C)/C=C/C(=O)NC\C=C\1 [Example 5] | ~ 10 | > 3 | 0.6 | > 3 | 0 | 0 | 0 | 0 | 0 | > 3 | 12 | 10 | 13 | 0 | 0 | 0 | 0 | percentage in parentheses beside >3.0, [3H]L-365,260 (inhibition at top concentration, not defined) ([1]; beside IC50 >3.0): 40%; zone of inhibition at 20 µg/disc ([5]; read-out: Inhibition zone diameter, Coli 1418, @ 20 g/disc): 0 mm; MIC ([11]; Micrococcus luteus, ATCC9341, 18 h, read-out: Agar Diffusion MIC versus Micrococcus luteus): 0.41 µM (≈ 0.264 µg/mL); zone of inhibition at 40 µg/disc ([11]; Micrococcus luteus, ATCC9341, 18 h, read-out: Mean of triplicate zone size versus Micrococcus luteus, 40.0 μg/disc; 25° C., ~18 hours): 14 mm; zone of inhibition at 80 µg/disc ([11]; Micrococcus luteus, ATCC9341, 18 h, read-out: Mean of triplicate zone size versus Micrococcus luteus, 80.0 μg/disc; 25° C., ~18 hours): 14 mm; zone of inhibition at 20 µg/disc ([15]; read-out: Inhibition zone diameter, Pseu 1231, @ 20 g/disc): 0 mm |
